DBAASP
Converted amounts (≈) assume the structure as drawn. Blank lines part the entries; values can stand above or below the molecule they belong to.

Experiments:
Assay in all cases: ≥ marks a high value that may be exact or a test limit, other limits are often not marked, values filed in µg/mL are converted to µM
[1] = tested on: Staphylococcus aureus
[2] = tested on: Pseudomonas aeruginosa PAK
[3] = tested on: Streptococcus gordonii Challis DL1
[4] = tested on: Streptococcus mutans UA159
[5] = tested on: Streptococcus mitis ATCC 903
[6] = tested on: Streptococcus sanguinis NY101
[7] = tested on: Candida albicans
[8] = tested on: Aspergillus fumigatus
[9] = tested on: Fusarium culmorum MUCL 30162
[10] = tested on: Fusarium haematococcum 160.2.2
[11] = tested on: Saccharomyces cerevisiae TGY 481 pJM600
[12] = tested on: Neurospora crassa CBS 327-54
[13] = tested on: Micrococcus luteus A270
[14] = tested on: Fusarium oxysporum MUCL 909
[15] = tested on: Bacillus megaterium MA
[16] = tested on: Alternaria brassicicola MUCL 20297
[17] = tested on: Spiroplasma citri R8A2
[18] = tested on: Acholeplasma laidlawii A-EF22
[19] = tested on: Salmonella enterica subsp. enterica serovar Newport
[20] = tested on: Escherichia coli BL21AI
[21] = tested on: Bacillus subtilis DSM 347
[22] = tested on: Sinorhizobium meliloti ZB314
[23] = tested on: Klebsiella pneumoniae DSM 681
[24] = tested on: Salmonella typhimurium ATCC 23565
[25] = tested on: Micrococcus luteus ATCC 10240
[26] = tested on: Bacillus megaterium QMB 1551
[27] = tested on: Klebsiella pneumoniae K6 ATCC 700603
[28] = tested on: Agrobacterium tumefaciens DSM 3129
[29] = tested on: Escherichia coli DC2
[30] = tested on: Pseudomonas syringae pv. tomato NCPPB 1106
[31] = tested on: Escherichia coli DSM 10233
[32] = tested on: Escherichia coli NCTC 9001
[33] = tested on: Escherichia coli D31
[34] = tested on: Staphylococcus aureus USA 300
[35] = tested on: Salmonella enterica subsp. enterica serovar Typhimurium ATCC 700408
[36] = tested on: Shigella flexneri CP87
[37] = tested on: Escherichia coli DSM 1103
[38] = tested on: Brenneria salicis NCPPB 2530
[39] = tested on: Clavibacter michiganensis subsp. insidiosus NCPPB 1109
[40] = tested on: Escherichia coli K-12

- MIC [1]: 46.7 µM (≈ 125 µg/mL)
- MIC [2]: 23.3 µM (≈ 62.5 µg/mL)
- MIC [3]: 11.9 µM (≈ 32 µg/mL)
- MIC [4]: 2.99 µM (≈ 8 µg/mL)
- MIC [5]: 5.97 µM (≈ 16 µg/mL)
- MIC [6]: 11.9 µM (≈ 32 µg/mL)
Compound: CC[C@H](C)[C@H](NC(=O)[C@H](Cc1ccccc1)NC(=O)[C@H](Cc1cnc[nH]1)NC(=O)[C@H](CCCCN)NC(=O)[C@@H](NC(=O)[C@@H](N)Cc1ccccc1)[C@@H](C)CC)C(=O)N[C@@H](Cc1cnc[nH]1)C(=O)N[C@@H](CCCN=C(N)N)C(=O)N[C@@H](Cc1ccccc1)C(=O)N[C@@H](CO)C(=O)N[C@@H](C)C(=O)N[C@H](C(=O)N[C@@H](CCCN=C(N)N)C(=O)N[C@@H](Cc1c[nH]c2ccccc12)C(=O)N[C@@H](CCCN=C(N)N)C(=O)N[C@@H](Cc1c[nH]c2ccccc12)C(=O)N[C@@H](CCCN=C(N)N)C(=O)N[C@@H](Cc1c[nH]c2ccccc12)C(=O)N[C@@H](Cc1ccccc1)C(N)=O)[C@@H](C)O [FIKHFIHRFSATRWRWRWF]

- MIC [7]: 10 µM (≈ 85.8 µg/mL)
- MIC [8]: 5 µM (≈ 42.9 µg/mL)
- MIC [9]: 1 µM (≈ 8.58 µg/mL)
- MIC [10]: 1 µM (≈ 8.58 µg/mL)
- MIC [11]: 10 µM (≈ 85.8 µg/mL)
- MIC [12]: 3 µM (≈ 25.8 µg/mL)
- MIC [13]: 2 µM (≈ 17.2 µg/mL)
- MIC [14]: 10 µM (≈ 85.8 µg/mL)
- MIC [15]: 0.2 µM (≈ 1.72 µg/mL)
- MIC [16]: 3 µM (≈ 25.8 µg/mL)
Compound: CC[C@H](C)[C@H](NC(=O)[C@H](CCCN=C(N)N)NC(=O)[C@H](CCC(=O)O)NC(=O)[C@H](CC(=O)O)NC(=O)CNC(=O)[C@H](CCCN=C(N)N)NC(=O)[C@H](CC(C)C)NC(=O)[C@@H](NC(=O)[C@H](CCC(=O)O)NC(=O)[C@H](Cc1ccccc1)NC(=O)[C@@H]1CSSC[C@H](NC(=O)[C@H](CCCCN)NC(=O)[C@H](CCSC)NC(=O)[C@@H](NC(=O)[C@H](CCC(=O)O)NC(=O)[C@@H](NC(=O)[C@H](CC(=O)O)NC(=O)CNC(=O)[C@H](CCCCN)NC(=O)[C@H](CC(N)=O)NC(=O)[C@H](CCSC)NC(=O)[C@@H]2CCCN2C(=O)[C@H](CO)NC(=O)[C@H](CC(N)=O)NC(=O)[C@@H](NC(=O)[C@@H]2CCCN2C(=O)[C@@H](N)CC(C)C)C(C)C)[C@@H](C)O)C(C)C)C(=O)N[C@@H]([C@@H](C)CC)C(=O)N[C@@H](C(C)C)C(=O)N[C@@H](CCC(=O)O)C(=O)N[C@@H](C(C)C)C(=O)N[C@@H]([C@@H](C)CC)C(=O)N[C@@H](CO)C(=O)N[C@@H](CC(=O)O)C(=O)N[C@@H]([C@@H](C)O)C(=O)N[C@@H](CC(C)C)C(=O)N[C@@H](CO)C(=O)N[C@@H](CCCCN)C(=O)N2CCC[C@H]2C(=O)N[C@@H](CO)C(=O)N2CCC[C@H]2C(=O)N[C@@H](CCSC)C(=O)N2CCC[C@H]2C(=O)N[C@@H](C(C)C)C(=O)N[C@@H](CO)C(=O)N[C@@H](CCCCN)C(=O)N[C@@H](CCC(=O)O)C(=O)N1)[C@@H](C)O)C(=O)N[C@@H](CC(C)C)C(=O)N[C@@H](CO)C(=O)N[C@H](C(=O)N[C@@H](CC(C)C)C(=O)N[C@@H](CCCN=C(N)N)C(=O)N[C@@H](Cc1cnc[nH]1)C(=O)N[C@@H](CCC(N)=O)C(=O)N[C@@H](CC(N)=O)C(=O)N[C@@H](CC(C)C)C(=O)N[C@@H](CC(C)C)C(=O)N[C@@H](CCCCN)C(=O)N[C@@H](CCC(=O)O)C(=O)N[C@@H](CC(C)C)C(=O)N[C@@H](CCC(N)=O)C(=O)N[C@@H](CC(=O)O)C(=O)N[C@@H](CC(C)C)C(=O)N[C@@H](C)C(=O)N[C@@H](CC(C)C)C(=O)N[C@@H](CCC(N)=O)C(=O)NCC(=O)N[C@@H](C)C(=O)N[C@@H](CCCCN)C(=O)N[C@@H](CCC(=O)O)C(=O)N[C@@H](CCCN=C(N)N)C(=O)N[C@H](C(=O)N[C@@H](Cc1cnc[nH]1)C(=O)N[C@@H](CCC(N)=O)C(=O)N[C@@H](CCC(N)=O)C(=O)O)[C@@H](C)O)[C@@H](C)CC [LPVNSPMNKGDTEVMKCIVEVISDTLSKPSPMPVSKECFETLRGDERILSILRHQNLLKELQDLALQGAKERTHQQ]

- MIC [17]: ≥ 100 µM
- MIC [18]: ≥ 100 µM
Compound: CC(C)C[C@H](NC(=O)[C@H](CC(C)C)NC(=O)[C@H](CCCCN)NC(=O)[C@H](CC(C)C)NC(=O)[C@H](CC(C)C)NC(=O)[C@H](CC(C)C)NC(=O)[C@H](CCCCN)NC(=O)[C@@H](N)CC(C)C)C(=O)N[C@@H](CCCCN)C(=O)O [LKLLLKLLK]

- MIC [19]: 0.0949 µM (≈ 0.2 µg/mL)
- MIC [20]: 0.465 µM (≈ 0.98 µg/mL)
- MIC [21]: ≥ 59.3 µM
- MIC [22]: 0.0474 µM (≈ 0.0999 µg/mL)
- MIC [23]: 7.41 µM (≈ 15.6 µg/mL)
- MIC [24]: 0.0474 µM (≈ 0.0999 µg/mL)
- MIC [25]: 14.8 µM (≈ 31.3 µg/mL)
- MIC [26]: ≥ 71.1 µM
- MIC [27]: 30.4 µM (≈ 64 µg/mL)
- MIC [28]: 0.0949 µM (≈ 0.2 µg/mL)
- MIC [29]: 1.85 µM (≈ 3.91 µg/mL)
- MIC [30]: 0.0949 µM (≈ 0.2 µg/mL)
- MIC [31]: 0.925 µM (≈ 1.95 µg/mL)
- MIC [32]: 0.0474 µM (≈ 0.0999 µg/mL)
- MIC [33]: 30.4 µM (≈ 64 µg/mL)
- MIC [34]: ≥ 100 µM
- MIC [35]: 0.949 µM (≈ 2 µg/mL)
- MIC [36]: 0.0474 µM (≈ 0.0999 µg/mL)
- MIC [37]: 0.925 µM (≈ 1.95 µg/mL)
- MIC [38]: 0.0095 µM (≈ 0.02 µg/mL)
- MIC [39]: 23.7 µM (≈ 50 µg/mL)
- MIC [40]: ≥ 100 µM
Compound: CC[C@H](C)[C@H](NC(=O)[C@H](CCCNC(=N)N)NC(=O)[C@@H]1CCCN1C(=O)[C@H](Cc1cnc[nH]1)NC(=O)[C@@H]1CCCN1C(=O)[C@@H]1CCCN1C(=O)[C@H](CCCNC(=N)N)NC(=O)[C@@H]1CCCN1C(=O)[C@H](CCC(N)=O)NC(=O)[C@@H]1CCCN1C(=O)[C@@H](NC(=O)[C@H](Cc1ccc(O)cc1)NC(=O)[C@@H](NC(=O)[C@@H]1CCCN1C(=O)[C@H](CCCNC(=N)N)NC(=O)[C@H](CC(N)=O)NC(=O)[C@H](CC(N)=O)NC(=O)CN)C(C)C)[C@@H](C)CC)C(=O)O [GNNRPVYIPQPRPPHPRI]
